Each block holds one compound with its values, some of them ahead of it. Calls of active or inactive are those of the source.
Tests used:
[1] = molecular target: T1, Mannose-6-phosphate isomerase (Homo sapiens, UniProt P34949); test: MPI enzyme activity inhibition – biochemical, fluorescence intensity, coupled assay, primary screen (AID 1209)
T1 sequence (P34949 whole entry): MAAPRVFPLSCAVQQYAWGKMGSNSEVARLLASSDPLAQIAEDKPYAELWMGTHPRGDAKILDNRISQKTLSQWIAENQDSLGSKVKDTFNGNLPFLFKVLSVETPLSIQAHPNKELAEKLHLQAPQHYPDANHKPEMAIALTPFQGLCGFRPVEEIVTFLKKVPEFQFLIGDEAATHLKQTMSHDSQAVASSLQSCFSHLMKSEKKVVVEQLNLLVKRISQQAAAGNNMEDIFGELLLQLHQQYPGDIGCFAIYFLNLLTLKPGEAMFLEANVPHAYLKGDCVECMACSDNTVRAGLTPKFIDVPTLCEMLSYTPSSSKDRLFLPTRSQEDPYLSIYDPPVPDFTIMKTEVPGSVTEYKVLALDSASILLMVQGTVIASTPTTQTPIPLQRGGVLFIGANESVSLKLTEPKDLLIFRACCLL

[2] = molecular target: T2, Tyrosyl-DNA phosphodiesterase 2 (Homo sapiens, UniProt O95551); test: potency against TDP2 phosphodiesterase activity – biochemical, epi absorbance, IC50, dose response (AID 743297)
T2 sequence (O95551 whole entry): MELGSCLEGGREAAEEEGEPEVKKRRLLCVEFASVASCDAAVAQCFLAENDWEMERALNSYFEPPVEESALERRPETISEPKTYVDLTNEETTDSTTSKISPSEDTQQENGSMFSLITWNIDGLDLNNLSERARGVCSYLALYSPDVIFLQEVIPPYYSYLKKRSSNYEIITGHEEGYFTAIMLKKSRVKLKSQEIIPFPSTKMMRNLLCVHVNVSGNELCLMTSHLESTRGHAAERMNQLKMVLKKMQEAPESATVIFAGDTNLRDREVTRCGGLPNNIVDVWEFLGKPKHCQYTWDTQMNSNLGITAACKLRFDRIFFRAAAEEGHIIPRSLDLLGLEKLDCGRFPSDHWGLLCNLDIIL

[3] = molecular target: Activin receptor type-1 (Homo sapiens, UniProt Q04771); test: Navigating the Kinome. Panel member name: ACVR1; type: functional
[4] = molecular target: cAMP-dependent protein kinase catalytic subunit PRKX (Homo sapiens, UniProt P51817); type: functional
[5] = molecular target: Dual specificity protein kinase CLK4 (Homo sapiens, UniProt Q9HAZ1); type: functional
[6] = molecular target: Inhibitor of nuclear factor kappa-B kinase subunit epsilon (Homo sapiens, UniProt Q14164); test: Navigating the Kinome. Panel member name: IKBKE; type: functional
[7] = molecular target: Phosphorylase b kinase gamma catalytic chain, liver/testis isoform (Homo sapiens, UniProt P15735); type: functional;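 further: PHKG2 measured as one member of a kinome-wide kinase panel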
[8] = molecular target: Serine/threonine-protein kinase PLK4 (Homo sapiens, UniProt O00444); type: functional;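 further: PLK4 measured as one member of a kinome-wide kinase profiling panel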
[9] = molecular target: Ribosomal protein S6 kinase beta-1 (Homo sapiens, UniProt P23443); type: functional;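 further: measured as one member of a kinome-wide profiling panel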
[10] = molecular target: Calcium/calmodulin-dependent protein kinase type II subunit gamma (Homo sapiens, UniProt Q13555); type: functional
[11] = molecular target: Tyrosine-protein kinase SYK (Homo sapiens, UniProt P43405); type: functional
[12] = molecular target: Serine/threonine-protein kinase 17A (Homo sapiens, UniProt Q9UEE5); type: functional
[13] = molecular target: SRSF protein kinase 1 (Homo sapiens, UniProt Q96SB4); type: functional;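 further: measured as one member of a kinome-wide kinase profiling panel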
[14] = molecular target: MAP kinase-activated protein kinase 5 (Homo sapiens, UniProt Q8IW41); type: functional;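 further: measured as one member of a kinome panel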
[15] = molecular target: MAP kinase-activated protein kinase 2 (Homo sapiens, UniProt P49137); type: functional;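 further: measured as one member of a kinome-wide kinase panel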
[16] = molecular target: Ribosomal protein S6 kinase alpha-5 (Homo sapiens, UniProt O75582); type: functional
[17] = molecular target: Testis-specific serine/threonine-protein kinase 1 (Homo sapiens, UniProt Q9BXA7); type: functional
[18] = molecular target: Homeodomain-interacting protein kinase 2 (Homo sapiens, UniProt Q9H2X6); type: functional;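 further: measured within a kinome-wide kinase profiling panel, HIPK2 being one panel member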
[19] = molecular target: Insulin receptor (Homo sapiens, UniProt P06213); type: functional;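 further: insulin receptor kinase tested as one member of a kinome-wide kinase panel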
[20] = molecular target: Serine/threonine-protein kinase pim-3 (Homo sapiens, UniProt Q86V86); type: functional;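 further: value obtained as one member of a broad kinase panel profiling effort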
[21] = molecular target: Proto-oncogene tyrosine-protein kinase Src (Homo sapiens, UniProt P12931); type: functional;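 further: SRC entry within a kinome-wide kinase profiling panel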
[22] = molecular target: Tyrosine-protein kinase Srms (Homo sapiens, UniProt Q9H3Y6); type: functional;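 further: SRMS measured as one member of a kinome-wide kinase profiling panel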
[23] = molecular target: Receptor tyrosine-protein kinase erbB-2 (Homo sapiens, UniProt P04626); test: Navigating the Kinome. Panel member name: ERBB2; type: functional
[24] = molecular target: Ephrin type-A receptor 2 (Homo sapiens, UniProt P29317); type: functional;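 further: EPHA2 tested as one member of a kinome-wide kinase panel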
[25] = molecular target: Mitogen-activated protein kinase 1 (Homo sapiens, UniProt P28482); type: functional
[26] = molecular target: Serine/threonine-protein kinase Nek4 (Homo sapiens, UniProt P51957); type: functional
[27] = molecular target: Protein kinase C iota type (Homo sapiens, UniProt P41743); type: functional;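 further: measured within a kinome-wide kinase panel, PRKCI as panel member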
[28] = molecular target: Focal adhesion kinase 1 (Homo sapiens, UniProt Q05397); type: functional;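 further: measured as one member of a kinome panel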
[29] = molecular target: Interleukin-1 receptor-associated kinase 4 (Homo sapiens, UniProt Q9NWZ3); type: functional
[30] = molecular target: Tyrosine-protein kinase Fer (Homo sapiens, UniProt P16591); type: functional;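 further: FER tested as one member of a kinome panel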
[31] = molecular target: Calcium/calmodulin-dependent protein kinase type 1 (Homo sapiens, UniProt Q14012); type: functional
[32] = molecular target: Receptor tyrosine-protein kinase erbB-4 (Homo sapiens, UniProt Q15303); type: functional;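 further: ERBB4 member of a kinome-wide kinase profiling panel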
[33] = molecular target: Serine/threonine-protein kinase BRSK1 (Homo sapiens, UniProt Q8TDC3); type: functional;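 further: measured within a kinome-wide kinase panel, with the target listed as KIAA1811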
[34] = molecular target: Tyrosine-protein kinase receptor UFO (Homo sapiens, UniProt P30530); type: functional

Chain of Ephrin type-A receptor 2 (P29317 whole entry): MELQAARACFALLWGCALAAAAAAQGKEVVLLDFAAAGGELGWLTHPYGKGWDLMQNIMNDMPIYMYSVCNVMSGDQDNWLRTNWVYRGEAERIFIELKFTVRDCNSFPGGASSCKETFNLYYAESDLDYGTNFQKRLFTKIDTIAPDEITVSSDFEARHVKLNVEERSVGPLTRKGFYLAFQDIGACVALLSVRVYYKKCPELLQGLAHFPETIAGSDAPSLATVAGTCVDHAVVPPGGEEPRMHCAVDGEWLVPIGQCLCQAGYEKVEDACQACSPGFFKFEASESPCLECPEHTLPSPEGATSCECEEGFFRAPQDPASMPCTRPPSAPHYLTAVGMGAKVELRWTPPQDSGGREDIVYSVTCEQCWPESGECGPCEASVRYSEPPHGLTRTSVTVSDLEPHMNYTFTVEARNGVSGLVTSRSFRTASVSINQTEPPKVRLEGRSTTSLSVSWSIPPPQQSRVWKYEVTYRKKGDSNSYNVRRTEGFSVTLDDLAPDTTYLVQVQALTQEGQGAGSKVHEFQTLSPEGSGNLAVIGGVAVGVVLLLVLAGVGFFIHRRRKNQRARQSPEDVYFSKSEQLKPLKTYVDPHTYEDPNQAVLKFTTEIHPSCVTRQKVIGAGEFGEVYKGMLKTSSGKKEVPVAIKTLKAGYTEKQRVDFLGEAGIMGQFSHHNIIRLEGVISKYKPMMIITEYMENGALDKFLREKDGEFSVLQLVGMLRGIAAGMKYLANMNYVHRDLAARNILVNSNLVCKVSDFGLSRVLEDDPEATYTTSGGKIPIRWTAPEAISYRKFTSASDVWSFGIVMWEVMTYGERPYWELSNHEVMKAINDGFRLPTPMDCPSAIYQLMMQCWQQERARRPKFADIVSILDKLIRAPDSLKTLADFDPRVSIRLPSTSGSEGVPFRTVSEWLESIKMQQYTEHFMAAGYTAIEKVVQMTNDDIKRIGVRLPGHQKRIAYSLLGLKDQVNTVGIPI
Chain of Dual specificity protein kinase CLK4 (Q9HAZ1 whole entry): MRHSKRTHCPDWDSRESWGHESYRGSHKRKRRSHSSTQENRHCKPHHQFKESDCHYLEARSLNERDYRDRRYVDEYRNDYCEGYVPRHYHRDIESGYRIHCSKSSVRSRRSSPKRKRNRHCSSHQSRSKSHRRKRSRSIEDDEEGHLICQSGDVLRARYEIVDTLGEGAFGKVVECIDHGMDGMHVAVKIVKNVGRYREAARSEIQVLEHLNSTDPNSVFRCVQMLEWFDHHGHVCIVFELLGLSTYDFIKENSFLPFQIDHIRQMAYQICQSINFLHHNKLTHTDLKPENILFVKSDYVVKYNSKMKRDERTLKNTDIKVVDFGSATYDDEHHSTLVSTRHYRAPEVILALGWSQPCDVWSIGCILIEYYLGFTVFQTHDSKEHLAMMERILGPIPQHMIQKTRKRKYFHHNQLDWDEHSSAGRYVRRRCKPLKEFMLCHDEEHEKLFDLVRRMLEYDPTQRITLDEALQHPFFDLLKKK
Chain of SRSF protein kinase 1 (Q96SB4 whole entry): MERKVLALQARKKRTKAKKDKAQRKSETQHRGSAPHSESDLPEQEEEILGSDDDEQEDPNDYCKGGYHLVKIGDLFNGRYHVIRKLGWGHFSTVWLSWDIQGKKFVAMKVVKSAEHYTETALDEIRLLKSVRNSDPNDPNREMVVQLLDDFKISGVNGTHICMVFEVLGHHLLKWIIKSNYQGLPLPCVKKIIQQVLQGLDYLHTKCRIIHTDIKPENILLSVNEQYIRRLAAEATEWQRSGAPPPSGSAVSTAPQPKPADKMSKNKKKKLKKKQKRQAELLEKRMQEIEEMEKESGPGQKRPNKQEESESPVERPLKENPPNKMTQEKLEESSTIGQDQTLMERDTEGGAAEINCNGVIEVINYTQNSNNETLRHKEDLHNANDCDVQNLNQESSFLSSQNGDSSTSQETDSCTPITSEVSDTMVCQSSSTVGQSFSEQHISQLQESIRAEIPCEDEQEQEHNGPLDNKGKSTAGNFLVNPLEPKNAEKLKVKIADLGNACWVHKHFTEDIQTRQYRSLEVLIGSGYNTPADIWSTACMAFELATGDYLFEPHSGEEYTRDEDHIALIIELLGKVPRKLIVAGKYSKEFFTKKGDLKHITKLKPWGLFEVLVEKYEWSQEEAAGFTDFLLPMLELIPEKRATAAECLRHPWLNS
Chain of Tyrosine-protein kinase Srms (Q9H3Y6 whole entry): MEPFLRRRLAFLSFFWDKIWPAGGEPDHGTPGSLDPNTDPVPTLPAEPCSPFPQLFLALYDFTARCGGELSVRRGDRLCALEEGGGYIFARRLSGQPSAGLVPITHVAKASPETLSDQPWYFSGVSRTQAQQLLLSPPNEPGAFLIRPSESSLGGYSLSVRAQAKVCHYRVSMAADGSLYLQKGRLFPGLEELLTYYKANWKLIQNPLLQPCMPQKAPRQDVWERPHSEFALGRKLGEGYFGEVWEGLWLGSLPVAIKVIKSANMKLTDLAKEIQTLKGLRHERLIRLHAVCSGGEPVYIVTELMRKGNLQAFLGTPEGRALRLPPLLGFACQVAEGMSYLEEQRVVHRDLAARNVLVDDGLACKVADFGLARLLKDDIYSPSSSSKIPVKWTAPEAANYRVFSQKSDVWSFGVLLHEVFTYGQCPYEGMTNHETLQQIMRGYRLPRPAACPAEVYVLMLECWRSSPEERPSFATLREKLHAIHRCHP
Chain of Receptor tyrosine-protein kinase erbB-4 (Q15303 whole entry): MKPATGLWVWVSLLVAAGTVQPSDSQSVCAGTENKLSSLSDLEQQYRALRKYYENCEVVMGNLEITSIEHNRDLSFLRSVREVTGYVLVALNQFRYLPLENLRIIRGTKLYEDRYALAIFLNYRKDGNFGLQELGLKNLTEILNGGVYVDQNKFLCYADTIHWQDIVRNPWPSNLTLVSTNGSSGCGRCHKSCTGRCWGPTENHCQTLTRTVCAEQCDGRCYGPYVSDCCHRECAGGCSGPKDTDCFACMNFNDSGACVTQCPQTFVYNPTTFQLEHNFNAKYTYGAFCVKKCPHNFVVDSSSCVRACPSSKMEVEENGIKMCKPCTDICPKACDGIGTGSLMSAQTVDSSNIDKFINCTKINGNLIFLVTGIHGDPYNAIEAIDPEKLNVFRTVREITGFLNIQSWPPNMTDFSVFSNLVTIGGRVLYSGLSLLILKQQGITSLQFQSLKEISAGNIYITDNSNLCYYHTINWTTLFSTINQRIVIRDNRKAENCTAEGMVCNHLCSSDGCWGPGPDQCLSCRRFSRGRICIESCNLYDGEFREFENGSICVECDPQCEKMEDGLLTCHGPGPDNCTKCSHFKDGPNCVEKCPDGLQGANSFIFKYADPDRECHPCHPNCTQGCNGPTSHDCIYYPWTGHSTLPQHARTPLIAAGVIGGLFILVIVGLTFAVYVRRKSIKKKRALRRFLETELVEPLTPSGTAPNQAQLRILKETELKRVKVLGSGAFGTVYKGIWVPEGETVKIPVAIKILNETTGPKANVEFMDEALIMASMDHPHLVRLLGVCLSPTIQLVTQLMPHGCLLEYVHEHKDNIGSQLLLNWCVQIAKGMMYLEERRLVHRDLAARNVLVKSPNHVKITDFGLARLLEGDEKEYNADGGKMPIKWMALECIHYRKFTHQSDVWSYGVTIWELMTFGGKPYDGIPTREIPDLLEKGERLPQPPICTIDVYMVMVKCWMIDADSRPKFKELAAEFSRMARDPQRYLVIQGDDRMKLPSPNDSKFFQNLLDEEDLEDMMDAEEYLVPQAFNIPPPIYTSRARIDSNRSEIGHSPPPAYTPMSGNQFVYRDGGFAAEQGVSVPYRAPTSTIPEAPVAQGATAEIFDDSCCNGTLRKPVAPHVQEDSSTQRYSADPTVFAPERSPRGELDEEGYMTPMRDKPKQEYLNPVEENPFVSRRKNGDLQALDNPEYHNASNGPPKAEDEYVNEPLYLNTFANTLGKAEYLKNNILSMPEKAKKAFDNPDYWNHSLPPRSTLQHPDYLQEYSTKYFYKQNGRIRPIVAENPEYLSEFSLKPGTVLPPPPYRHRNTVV
Chain of Focal adhesion kinase 1 (Q05397 whole entry): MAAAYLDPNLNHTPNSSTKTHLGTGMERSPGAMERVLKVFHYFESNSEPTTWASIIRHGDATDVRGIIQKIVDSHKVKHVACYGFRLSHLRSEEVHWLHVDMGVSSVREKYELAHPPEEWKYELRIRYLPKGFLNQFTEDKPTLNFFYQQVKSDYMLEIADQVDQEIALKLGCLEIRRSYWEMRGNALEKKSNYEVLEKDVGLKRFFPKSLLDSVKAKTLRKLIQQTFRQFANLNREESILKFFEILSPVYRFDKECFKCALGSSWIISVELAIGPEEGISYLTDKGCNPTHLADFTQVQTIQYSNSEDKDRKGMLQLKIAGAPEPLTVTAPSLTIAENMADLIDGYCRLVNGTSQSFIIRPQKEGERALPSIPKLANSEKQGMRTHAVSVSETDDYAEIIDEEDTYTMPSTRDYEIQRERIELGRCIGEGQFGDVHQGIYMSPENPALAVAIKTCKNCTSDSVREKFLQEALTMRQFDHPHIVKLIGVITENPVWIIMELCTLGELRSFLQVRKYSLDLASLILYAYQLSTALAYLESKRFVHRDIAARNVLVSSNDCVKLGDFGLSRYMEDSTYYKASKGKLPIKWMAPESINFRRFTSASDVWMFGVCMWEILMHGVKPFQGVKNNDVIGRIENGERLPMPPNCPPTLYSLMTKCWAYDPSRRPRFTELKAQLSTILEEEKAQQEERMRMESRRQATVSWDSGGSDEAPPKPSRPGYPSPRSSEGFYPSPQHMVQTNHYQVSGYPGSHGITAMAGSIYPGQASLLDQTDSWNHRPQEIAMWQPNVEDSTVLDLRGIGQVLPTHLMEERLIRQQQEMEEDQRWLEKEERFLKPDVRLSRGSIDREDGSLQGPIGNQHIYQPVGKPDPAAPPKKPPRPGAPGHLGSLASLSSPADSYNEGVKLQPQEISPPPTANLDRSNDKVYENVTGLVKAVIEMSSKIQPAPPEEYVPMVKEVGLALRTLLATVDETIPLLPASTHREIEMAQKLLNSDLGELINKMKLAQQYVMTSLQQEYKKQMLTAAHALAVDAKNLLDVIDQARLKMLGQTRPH

IC50 [1]: > 50 µM (not active) | IC50 [2]: > 128 µM (inactive)
Compound: COc1ccc(-n2c(NC(=O)c3ccco3)c(C#N)c3nc4ccccc4nc32)cc1

Ki [3]: > 3.98 µM (inactive) | Ki [4]: > 3.16 µM (inactive) | Ki [5]: > 2.51 µM (inactive) | Ki [6]: > 3.16 µM (inactive)
Compound: [2H]C([2H])([2H])Oc1cccc(C(C)NC(=O)c2sc(-c3ccncc3)nc2C)c1 (centres undefined)

Ki [7]: 1 µM (active) | Ki [8]: 1.26 µM (active) | Ki [9]: 25.1 nM (active) | Ki [10]: 15.8 nM (active) | Ki [11]: > 1.58 µM (inactive) | Ki [12]: 398 nM (active) | Ki [13]: > 5.01 µM (inactive) | Ki [14]: > 1.58 µM (inactive) | Ki [15]: 3.98 µM (active) | Ki [16]: 1.26 nM (active) | Ki [17]: 100 nM (active) | Ki [18]: 126 nM (active) | Ki [19]: 2.51 µM (active) | Ki [20]: 15.8 nM (active) | Ki [21]: > 2 µM (inactive) | Ki [22]: > 1.58 µM (inactive) | Ki [23]: > 1.58 µM (inactive) | Ki [24]: > 3.16 µM (inactive) | Ki [25]: 39.8 nM (active) | Ki [26]: 126 nM (active) | Ki [27]: 1 µM (active) | Ki [28]: > 1.58 µM (inactive) | Ki [29]: 126 nM (active) | Ki [30]: 1.26 µM (active) | Ki [31]: 251 nM (active) | Ki [32]: > 3.98 µM (inactive) | Ki [33]: 3.16 µM (active) | Ki [34]: 200 nM (active)
Compound: Cc1n[nH]c2ccc(-c3cncc(OCC(N)Cc4ccc(Cl)c(Cl)c4)c3)cc12 (centres undefined)

From ChEMBL document CHEMBL1201862, “PubChem BioAssay data set” (2004)
